# ChEMBL document CHEMBL4373692, “Structure-Based Development of (1-(3'-Mercaptopropanamido)methyl)boronic Acid Derived Broad-Spectrum, Dual-Action Inhibitors of Metallo- and Serine-β-lactamases” (J Med Chem, 2019)
# Activity calls are given as the source filed them. No cut-off for these calls is given here.
# Legend:
# [1] = Inhibition of bacterial N-terminal His-tagged TEV protease site linked KPC-2 (29 to 289 amino acids) expressed in Escherichia coli Transetta (DE3) preincubated for 10 mins followed by FC5 fluorescent substrate addition by fluorescence assay; design: species or system Bacteria
# [2] = target: Beta-lactamase TEM (Bacteria, UniProt P62593); test: Inhibition of bacterial N-terminal His-tagged TEV protease site linked TEM-1 (24 to 286 amino acids) expressed in Escherichia coli Transetta (DE3) preincubated for 10 mins followed by FC5 fluorescent substrate addition by fluorescence assay
# [3] = Inhibition of bacterial N-terminal His-tagged TEV protease site linked GOB-18 (1 to 290 amino acids) expressed in Escherichia coli Transetta (DE3) preincubated for 10 mins followed by FC5 fluorescent substrate addition by fluorescence assay; design: species or system Bacteria
# [4] = Inhibition of bacterial N-terminal His-tagged TEV protease site linked VIM-2 (27 to 266 amino acids) expressed in Escherichia coli Transetta (DE3) preincubated for 10 mins followed by FC5 fluorescent substrate addition by fluorescence assay; design: species or system Bacteria
# [5] = Inhibition of bacterial N-terminal His-tagged TEV protease site linked OXA-48 (1 to 265 amino acids) expressed in Escherichia coli Transetta (DE3) preincubated for 10 mins followed by FC5 fluorescent substrate addition by fluorescence assay; design: species or system Bacteria
# [6] = target: Angiotensin-converting enzyme 2 (Homo sapiens, UniProt Q9BYF1); test: Inhibition of human C-terminal His/FLAG-tagged ACE-2 expressed in HEK293 cells at 100 uM preincubated for 10 mins followed by Mca-Ala-Pro-Lys(Dnp)-OH substrate addition by fluorescence assay relative to control; assay type: cell-based; conditions: hek293, 100 µM
# [7] = Inhibition of bacterial N-terminal His-tagged TEV protease site linked SFH1 (3 to 234 amino acids) expressed in Escherichia coli Transetta (DE3) preincubated for 10 mins followed by FC5 fluorescent substrate addition by fluorescence assay; design: species or system Bacteria
# [8] = Inhibition of bacterial N-terminal His-tagged TEV protease site linked NDM-1 (1 to 270 amino acids) expressed in Escherichia coli Transetta (DE3) preincubated for 10 mins followed by FC5 fluorescent substrate addition by fluorescence assay; design: species or system Bacteria
# [9] = Inhibition of bacterial N-terminal His-tagged TEV protease site linked AmpC (20 to 377 amino acids) expressed in Escherichia coli Transetta (DE3) preincubated for 10 mins followed by FC5 fluorescent substrate addition by fluorescence assay; design: species or system Bacteria
# [10] = Inhibition of serine hydrolase in Escherichia coli Transetta (DE3) cell lysates at 50 uM preincubated for 30 mins followed by TAMRA-FP probe labeling for 20 mins by SDS-PAGE based ABPP analysis; assay type: subcellular, Lysate; conditions: 20 min, 50 µM
# [11] = Inhibition of serine hydrolase in HEK293T cell lysates at 50 uM preincubated for 30 mins followed by TAMRA-FP probe labeling for 20 mins by SDS-PAGE based ABPP analysis; assay type: subcellular, Lysate; conditions: human, 20 min, 50 µM
# [12] = test system: Klebsiella pneumoniae; test: Inhibition of beta lactamase AmpC in Klebsiella pneumoniae C660 assessed as potentiation of meropenem-induced antibacterial activity by measuring meropenem MIC at 50 uM after 16 to 20 hrs by broth microdilution assay (reference value: 32 ug/ml)
# [13] = test system: Klebsiella pneumoniae; test: Inhibition of beta lactamase KPC-2 in Klebsiella pneumoniae BAA-1705 assessed as potentiation of meropenem-induced antibacterial activity by measuring meropenem MIC at 50 uM after 16 to 20 hrs by broth microdilution assay
# [14] = test system: Escherichia coli; test: Inhibition of beta lactamase NDM1 in Escherichia coli BAA-2452 assessed as potentiation of meropenem-induced antibacterial activity by measuring meropenem MIC at 50 uM after 16 to 20 hrs by broth microdilution assay (reference value: 32 ug/ml)
# [15] = test system: Klebsiella pneumoniae; test: Inhibition of beta lactamase KPC-2 in Klebsiella pneumoniae 5846 assessed as potentiation of meropenem-induced antibacterial activity by measuring meropenem MIC at 50 uM after 16 to 20 hrs by broth microdilution assay (reference value: […] ug/ml)
# [16] = target: Metallo-beta-lactamase type 2 (Klebsiella pneumoniae) (UniProt C7C422); test: Inhibition of beta lactamase NDM1 in Klebsiella pneumoniae 13249 assessed as potentiation of meropenem-induced antibacterial activity by measuring meropenem MIC at 50 uM after 16 to 20 hrs by broth microdilution assay (reference value: 64 ug/ml)
# [17] = target: Class A carbapenemase KPC-2 (Escherichia coli) (UniProt A8DS27); conditions: BAA-2340
# [18] = test system: MCF7; test: Cytotoxicity against human MCF7 cells up to 100 uM after 72 hrs by MTT assay; assay type: cell-based; conditions: mcf7, 72 h
# [19] = target: Class A carbapenemase KPC-2 (Escherichia coli) (UniProt A8DS27); conditions: 11119
# [20] = test system: HEK-293T; test: Cytotoxicity against HEK293T cells up to 100 uM after 72 hrs by MTT assay; assay type: cell-based; conditions: human
# [21] = test system: Bacteria; test: Inhibition of bacterial KPC-2 (29 to 289 amino acids) expressed in Escherichia coli Transetta (DE3) preincubated for 10 mins followed by FC5 fluorescent substrate addition by jump-dilution recovery method
# Chain of Angiotensin-converting enzyme 2 (Q9BYF1 whole entry, the tested form may be a part): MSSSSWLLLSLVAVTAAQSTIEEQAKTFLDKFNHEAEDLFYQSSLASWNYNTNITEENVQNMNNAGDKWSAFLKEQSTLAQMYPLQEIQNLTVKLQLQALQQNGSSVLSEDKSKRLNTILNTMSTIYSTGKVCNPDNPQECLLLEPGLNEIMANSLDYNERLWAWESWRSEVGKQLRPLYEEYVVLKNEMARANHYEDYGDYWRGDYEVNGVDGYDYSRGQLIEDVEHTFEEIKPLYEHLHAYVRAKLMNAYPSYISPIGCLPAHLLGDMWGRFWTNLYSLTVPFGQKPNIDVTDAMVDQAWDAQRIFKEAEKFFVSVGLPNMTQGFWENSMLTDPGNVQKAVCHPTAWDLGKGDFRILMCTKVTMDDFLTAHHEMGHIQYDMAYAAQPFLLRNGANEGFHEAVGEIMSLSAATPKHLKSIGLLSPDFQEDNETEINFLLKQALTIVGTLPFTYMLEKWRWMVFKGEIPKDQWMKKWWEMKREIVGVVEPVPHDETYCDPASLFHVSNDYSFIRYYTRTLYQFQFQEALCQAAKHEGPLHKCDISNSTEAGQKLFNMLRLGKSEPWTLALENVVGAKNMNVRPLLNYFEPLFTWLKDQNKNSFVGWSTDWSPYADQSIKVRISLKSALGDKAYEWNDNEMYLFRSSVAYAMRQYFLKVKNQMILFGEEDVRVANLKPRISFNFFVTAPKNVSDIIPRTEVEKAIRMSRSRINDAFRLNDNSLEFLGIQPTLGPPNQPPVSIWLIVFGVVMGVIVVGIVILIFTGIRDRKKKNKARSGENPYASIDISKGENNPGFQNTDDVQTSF
structure (smiles),measurement,setting,value
C[C@H](CS)C(=O)N[C@H](Cc1ccc(F)cc1)B(O)O,Ki,[1],14.6 µM
same,Ki,[2],179 µM
same,Ki,[3],6.33 µM
same,Ki,[4],0.48 µM
same,Ki,[5],> 300 µM
same,inhibition (INH),[6],Not Active
same,Ki,[7],0.77 µM
same,Ki,[8],17.4 µM
same,Ki,[9],1.98 µM
C[C@H](CS)C(=O)N[C@H](B(O)O)c1ccc(F)cc1,Ki,[1],2.02 µM
same,Ki,[2],14.2 µM
same,Ki,[3],0.33 µM
same,Ki,[4],0.41 µM
same,Ki,[5],> 300 µM
same,inhibition (INH),[6],Not Active
same,Ki,[7],0.33 µM
same,Ki,[8],14.7 µM
same,Ki,[9],0.64 µM
O=C(CCS)N[C@H](Cc1coc2ccccc12)B(O)O,Ki,[1],5.56 µM
same,Ki,[2],35.7 µM
same,Ki,[3],2.5 µM
same,Ki,[4],0.33 µM
same,Ki,[5],> 300 µM
same,inhibition (INH),[6],Not Active
same,Ki,[7],0.63 µM
same,Ki,[8],16.5 µM
same,Ki,[9],4.47 µM
C[C@H](CS)C(=O)N[C@@H](B(O)O)c1ccccc1,Ki,[1],7.76 µM
same,Ki,[2],68.6 µM
same,Ki,[3],5.45 µM
same,Ki,[4],2.69 µM
same,inhibition (INH),[10],Not Active
same,Ki,[5],257 µM
same,inhibition (INH),[6],Not Active
same,Ki,[7],2.45 µM
same,Ki,[8],46.6 µM
same,Ki,[9],7.03 µM
same,inhibition (INH),[11],Not Active
Cc1ccc([C@H](NC(=O)[C@H](C)CS)B(O)O)cc1,Ki,[1],4.35 µM
same,Ki,[2],2.41 µM
same,Ki,[3],2.78 µM
same,Ki,[4],3.28 µM
same,Ki,[5],> 300 µM
same,inhibition (INH),[6],Not Active
same,Ki,[7],0.51 µM
same,Ki,[8],16.7 µM
same,Ki,[9],1.99 µM
C[C@H](CS)C(=O)N[C@H](Cc1ccccc1)B(O)O,Ki,[1],40.6 µM
same,MIC,[12],16 µg/mL
same,Ki,[2],> 300 µM
same,Ki,[3],4.38 µM
same,Ki,[4],1.04 µM
same,inhibition (INH),[10],Not Active
same,Ki,[5],> 300 µM
same,inhibition (INH),[6],Not Active
same,MIC,[13],16 µg/mL
same,MIC,[14],32 µg/mL
same,MIC,[15],16 µg/mL
same,Ki,[7],1 µM
same,Ki,[8],16.9 µM
same,MIC,[16],64 µg/mL
same,MIC,[17],2 µg/mL
same,Activity,[18],Non-Toxic
same,Ki,[9],2.47 µM
same,MIC,[19],16 µg/mL
same,inhibition (INH),[11],Not Active
same,Activity,[20],Non-Toxic
COc1ccc(C[C@@H](NC(=O)[C@H](C)CS)B(O)O)cc1,Ki,[1],11.1 µM
same,Ki,[2],80.7 µM
same,Ki,[3],2.5 µM
same,Ki,[4],0.56 µM
same,Ki,[5],> 300 µM
same,inhibition (INH),[6],Not Active
same,Ki,[7],0.74 µM
same,Ki,[8],7.22 µM
same,Ki,[9],1.18 µM
Cc1ccc([C@@H](NC(=O)[C@H](C)CS)B(O)O)cc1,Ki,[1],11.5 µM
same,Ki,[2],13.5 µM
same,Ki,[3],2.75 µM
same,Ki,[4],1.28 µM
same,Ki,[5],> 300 µM
same,inhibition (INH),[6],Not Active
same,Ki,[7],0.35 µM
same,Ki,[8],15.9 µM
same,Ki,[9],2.03 µM
N#Cc1ccc(Oc2ccc3c(c2)COB3O)cc1 [CRISABOROLE],inhibition (INH),[10],Active
same,inhibition (INH),[11],Active
C[C@]1(Cn2ccnn2)[C@H](C(=O)O)N2C(=O)C[C@H]2S1(=O)=O [TAZOBACTAM],inhibition,[21],Active
same,Ki,[1],0.2 µM
same,MIC,[12],16 µg/mL
same,Ki,[3],56.6 µM
same,Ki,[4],128 µM
same,Ki,[5],15.7 µM
same,MIC,[13],16 µg/mL
same,MIC,[14],16 µg/mL
same,MIC,[15],8 µg/mL
same,Ki,[7],62.2 µM
same,Ki,[8],> 300 µM
same,MIC,[16],64 µg/mL
same,MIC,[17],2 µg/mL
same,Ki,[9],18.8 µM
same,MIC,[19],8 µg/mL
